According to patent publication US12516039B2, “N-linked isoquinoline amides as LRRK2 inhibitors, pharmaceutical compositions, and uses thereof” (Merck Sharp & Dohme LLC, priority 2020, dated 2026):

What follows are molecules tested against T1, GST-tagged truncated human mutant G2019S LRRK2 (Homo sapiens, UniProt Q5S007, G2019S) (assay: LRRK2 G2019S Km ATP LanthaScreen assay). Conditions: 134 μM ATP (Km ATP), LRRKtide substrate, mean of several tests.
T1 construct: GST-tagged truncated human mutant G2019S LRRK2; purchased Life Technologies Corporation (Carlsbad, CA)
T1 sequence (Q5S007 970-2527 G2019S limits assumed): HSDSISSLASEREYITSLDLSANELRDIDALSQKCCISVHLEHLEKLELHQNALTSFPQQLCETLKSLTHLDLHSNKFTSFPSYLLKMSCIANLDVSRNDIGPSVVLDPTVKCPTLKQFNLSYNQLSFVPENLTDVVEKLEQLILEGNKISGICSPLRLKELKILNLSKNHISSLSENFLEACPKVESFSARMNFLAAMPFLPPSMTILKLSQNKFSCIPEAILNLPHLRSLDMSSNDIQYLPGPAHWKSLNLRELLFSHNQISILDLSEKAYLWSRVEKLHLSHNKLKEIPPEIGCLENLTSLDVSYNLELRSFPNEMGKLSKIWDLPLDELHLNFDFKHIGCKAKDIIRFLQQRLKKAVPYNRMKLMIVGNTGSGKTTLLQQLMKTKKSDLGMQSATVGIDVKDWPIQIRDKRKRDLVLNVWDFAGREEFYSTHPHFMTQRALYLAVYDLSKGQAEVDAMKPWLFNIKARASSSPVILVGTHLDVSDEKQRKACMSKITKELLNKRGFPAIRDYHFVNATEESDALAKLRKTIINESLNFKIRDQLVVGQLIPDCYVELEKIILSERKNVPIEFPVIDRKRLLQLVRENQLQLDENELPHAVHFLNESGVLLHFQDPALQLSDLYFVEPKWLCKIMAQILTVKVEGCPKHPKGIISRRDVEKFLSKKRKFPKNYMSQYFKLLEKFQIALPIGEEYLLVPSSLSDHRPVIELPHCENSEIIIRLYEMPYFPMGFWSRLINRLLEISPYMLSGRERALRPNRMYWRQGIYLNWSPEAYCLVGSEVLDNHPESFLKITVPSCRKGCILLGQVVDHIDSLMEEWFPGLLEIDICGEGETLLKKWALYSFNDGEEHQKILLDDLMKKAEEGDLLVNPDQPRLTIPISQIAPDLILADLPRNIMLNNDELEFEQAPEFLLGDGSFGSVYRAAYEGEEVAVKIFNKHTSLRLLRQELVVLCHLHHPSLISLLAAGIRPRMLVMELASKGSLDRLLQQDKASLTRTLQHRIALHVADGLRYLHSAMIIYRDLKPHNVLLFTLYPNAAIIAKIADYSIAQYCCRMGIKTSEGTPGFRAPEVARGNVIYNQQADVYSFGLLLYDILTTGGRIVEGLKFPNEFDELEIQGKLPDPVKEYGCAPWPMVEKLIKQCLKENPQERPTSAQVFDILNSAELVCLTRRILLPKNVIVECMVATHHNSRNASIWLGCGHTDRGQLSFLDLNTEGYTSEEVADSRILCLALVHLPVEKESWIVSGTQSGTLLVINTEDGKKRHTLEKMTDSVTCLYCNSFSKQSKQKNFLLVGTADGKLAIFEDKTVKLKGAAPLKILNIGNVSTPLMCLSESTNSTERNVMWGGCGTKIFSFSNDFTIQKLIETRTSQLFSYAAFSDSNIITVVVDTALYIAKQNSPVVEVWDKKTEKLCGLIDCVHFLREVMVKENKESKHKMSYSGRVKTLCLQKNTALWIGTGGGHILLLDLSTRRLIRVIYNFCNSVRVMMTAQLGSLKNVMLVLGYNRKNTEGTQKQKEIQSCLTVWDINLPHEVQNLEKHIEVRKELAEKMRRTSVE
Assay type: biochemical
In short: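 IC50 values are means of repeat runs, fitted with a 4-parameter logistic to the 520/495 nm TR-FRET ratio from a Tb-labeled anti-phospho-LRRKtide antibody added with EDTA. Reactions ran 90 min at room temperature at Km ATP (134 μM) with fluorescein-LRRKtide, after 15-min compound preincubation with truncated GST-tagged G2019S LRRK2.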

Row | Molecule | LRRK2 pIC50
1 | CC1(C#N)CCN(c2cc3cc(NC(=O)C4CC45CCOCC5)ncc3cc2Cl)CC1 (centres unmarked) [Ex-4.8] | 6.68
2 | (1R,2R,3R, or 1R,2S,3R, or 1S,2R,3S, or 1S,2S,3S)-N-[7-chloro-6-[4-((3R,4R or 3S,4S)-4-fluoro-3-methyl-tetrahydrofuran-3-yl)piperazin-4-ium-1-yl]-3-isoquinolyl]-2-methyl-3-(2-pyridyl)cyclopropanecarboxamide [Ex-10.71] | 7.72
3 | (3R or 3S)-N-[6-[4-((3R,4R or 3S,4S)-4-fluoro-3-methyl-tetrahydrofuran-3-yl)piperazin-1-yl]-7-methyl-3-isoquinolyl]-5,5-dimethyl-tetrahydrofuran-3-carboxamide [Ex-10.94] | 9.40
4 | Cc1cc2cnc(NC(=O)C3CC3c3ccccn3)cc2cc1N1CCN(C2(C)COCC2F)CC1 (centres unmarked) [Ex-9.19] | 10.09
5 | CN1CCN(c2cc3cc(NC(=O)C4CC4)ncc3cc2Cl)CC1 [Ex-8.2] | 7.53
6 | Cn1cc(C2CC2C(=O)Nc2cc3cc(N4CCC(F)(C#N)CC4)c(Cl)cc3cn2)cn1 (centres unmarked) [Ex-4.11] | 7.39
7 | CC1(N2CCN(c3cc4cc(NC(=O)C5CC56CC6)ncc4cc3Cl)CC2)COC1 (centres unmarked) [Ex-4.4] | 7.85
8 | CC1(O)CC2(CN(c3cc4cc(NC(=O)C5CC5)ncc4cc3Cl)C2)C1 [Ex-4.5] | 7.72

Same assay, conditions: 134 μM ATP (Km ATP), LRRKtide substrate, mean of several tests, read-out: LRRK2 pIC50 (converted)

Row | Molecule | IC50 [nM]
9 | Cn1ncc(C2CC2C(=O)Nc2cc3cc(N4CCN(C5(C)CCOC5)CC4)c(Cl)cc3cn2)c1C(F)(F)F (single isomer, unassigned) [Ex-10.27, (1R,2R or 1S,2S)-N-[7-chloro-6-[4-((R or S)-3-methyltetrahydrofuran-3-yl)piperazin-4-ium-1-yl]-3-isoquinolyl]-2-[1-methyl-5-(trifluoromethyl)pyrazol-4-yl]cyclopropanecarboxamide] | 38
10 | CC1(C)CC(C(=O)Nc2cc3cc(N4CCN(C5(C)COCC5O)CC4)c(Cl)cc3cn2)CO1 (single isomer, unassigned) [Ex-1.22, (R or S)-N-(7-chloro-6-(4-((3R,4R or 3S,4S)-4-hydroxy-3-methyltetrahydrofuran-3-yl)piperazin-1-yl)isoquinolin-3-yl)-5,5-dimethyltetrahydrofuran-3-carboxamide] | 1.17
11 | CC1(N2CCN(c3cc4cc(NC(=O)C5CC56CC6)ncc4cc3Cl)CC2)COCC1O (single isomer, unassigned) [Ex-2.12, (R or S)-N-(7-chloro-6-(4-((3R,4R or 3S,4S)-4-hydroxy-3-methyltetrahydrofuran-3-yl)piperazin-1-yl)isoquinolin-3-yl)spiro[2.2]pentane-1-carboxamide] | 0.513
12 | COC1COCC1N1CCN(c2cc3cc(NC(=O)C4CC45CCOCC5)ncc3cc2Cl)CC1 (single isomer, unassigned) [Ex-5.8] | 191
13 | CC1C(C(=O)Nc2cc3cc(N4CCN(C5(C)COCC5O)CC4)c(Cl)cc3cn2)C1c1ccccn1 (single isomer, unassigned) [Ex-11.4, (1R,2R,3R, or 1R,2S,3R, or 1S,2R,3S, or 1S,2S,3S)-N-(7-chloro-6-(4-((3R,4R or 3S,4S)-4-hydroxy-3-methyltetrahydrofuran-3-yl)piperazin-1-yl)isoquinolin-3-yl)-2-methyl-3-(pyridin-2-yl)cyclopropane-1-carboxamide] | 0.977
14 | CC1(N2CCN(c3cc4cc(NC(=O)C5C6COCC65)ncc4cc3Cl)CC2)COCC1O (single isomer, unassigned) [Ex-1.9, (1R or S)-N-(7-chloro-6-(4-((3R,4R or 3S,4S)-4-hydroxy-3-methyltetrahydrofuran-3-yl)piperazin-1-yl)isoquinolin-3-yl)-3-oxabicyclo[3.1.0]hexane-6-carboxamide] | 0.794
15 | Cc1cc2cnc(NC(=O)C3CC3c3ccccn3)cc2cc1N1CCN(C2(C)COCC2F)CC1 (single isomer, unassigned) [Ex-6.14] | 0.148
16 | Cc1cc2cnc(NC(=O)C3CC34CCOC4)cc2cc1N1CCN(C2(C)COCC2O)CC1 (single isomer, unassigned) [Ex-6.5, (1R, 3S or 1S,3R, or 1R,3S, or 1S,3S)-N-(6-(4-((3R, 4R or 3S,4S)-4-hydroxy-3-methyltetrahydrofuran-3-yl)piperazin-1-yl)-7-methylisoquinolin-3-yl)-5-oxaspiro[2.4]heptane-1-carboxamide] | 1.05
17 | Cc1cc2cnc(NC(=O)C3C4CCOCC43)cc2cc1N1CCN(C2(C)CCOC2)CC1 (single isomer, unassigned) [Ex-10.45, (1S,6R,7R, 1R,6S,7R, or 1R, 6S,7S, or 1S,6S,7S)-N-(7-methyl-6-(4-((R or S)-3-methyltetrahydrofuran-3-yl)piperazin-1-yl)isoquinolin-3-yl)-3-oxabicyclo[4.1.0]heptane-7-carboxamide] | 0.145
18 | CC1(N2CCN(c3cc4cc(NC(=O)C5CC56CCCOC6)ncc4cc3Cl)CC2)COCC1O (single isomer, unassigned) [Ex-1.14, (1R,3S, or 1R,3R, or 1S,3S, or 1S,3R)-N-(7-chloro-6-(4-((3R,4R or 3S,4S)-4-hydroxy-3-methyltetrahydrofuran-3-yl)piperazin-1-yl)isoquinolin-3-yl)-5-oxaspiro[2.5]octane-1-carboxamide] | 0.603
19 | CC1(N2CCN(c3cc4cc(NC(=O)C5CC5C5CCOCC5)ncc4cc3Cl)CC2)COCC1O (single isomer, unassigned) [Ex-10.31, (1R,2R or 1S,2S)-N-[7-chloro-6-[4-((3R,4R or 3S,4S)-4-hydroxy-3-methyl-tetrahydrofuran-3-yl)piperazin-1-yl]-3-isoquinolyl]-2-tetrahydropyran-4-yl-cyclopropanecarboxamide] | 0.0813
20 | Cc1cc2cnc(NC(=O)C3CC34CCOC4)cc2cc1N1CCN(C2(C)COCC2O)CC1 (single isomer, unassigned) [Ex-6.2, (1R, 3S or 1S,3R, or 1R,3S, or 1S,3S)-N-(6-(4-((3R, 4R or 3S,4S)-4-hydroxy-3-methyltetrahydrofuran-3-yl)piperazin-1-yl)-7-methylisoquinolin-3-yl)-5-oxaspiro[2.4]heptane-1-carboxamide] | 1.38
21 | CC1C(C(=O)Nc2cc3cc(N4CCN(C5(C)COCC5O)CC4)c(Cl)cc3cn2)C1c1ccn(C)n1 (single isomer, unassigned) [Ex-10.53, (1R,2R,3R, 1R,2S,3R, or 1S,2R,3S, or 1S,2S,3S)-N-[7-chloro-6-[4-((3R,4R or 3S,4S)-4-hydroxy-3-methyl-tetrahydrofuran-3-yl)piperazin-1-yl]-3-isoquinolyl]-2-methyl-3-(1-methylpyrazol-3-yl)cyclopropanecarboxamide] | 0.0813
22 | CCC1C(C(=O)Nc2cc3cc(N4CCN(C5(C)COCC5F)CC4)c(Cl)cc3cn2)C1c1ccn(C)n1 (single isomer, unassigned) [Ex-10.50, (1R,2R,3R, 1R,2S,3R, or 1S,2R,3S, or 1S,2S,3S)-N-[7-chloro-6-[4-((3R,4R or 3S,4S)-4-fluoro-3-methyl-tetrahydrofuran-3-yl)piperazin-1-yl]-3-isoquinolyl]-2-ethyl-3-(1-methylpyrazol-3-yl)cyclopropanecarboxamide] | 0.0813
23 | C[C@]1(O)COC[C@@]1(C)N1CCN(c2cc3cc(NC(=O)[C@@H]4CC45CCOCC5)ncc3cc2Cl)CC1 (single isomer, unassigned) [Ex-17.2, (R) or (S)-N-(7-chloro-6-((3R,4R) or (3S,4S)-4-(4-hydroxy-3,4-dimethyltetrahydrofuran-3-yl)piperazin-1-yl)isoquinolin-3-yl)-6-oxaspiro[2.5]octane-1-carboxamide] | 0.126
24 | CC1(N2CCN(c3cc4cc(NC(=O)C5CCCOC5)ncc4cc3Cl)CC2)COCC1O (single isomer, unassigned) [Ex-10.4, (3R or 3S)-N-(7-chloro-6-(4-((3R, 4R or 3S, 4S)-4-hydroxy-3-methyltetrahydrofuran-3-yl)piperazin-1-yl)isoquinolin-3-yl)tetrahydro-2H-pyran-3-carboxamide] | 1.38
25 | CC1(N2CCN(c3cc4cc(NC(=O)C5CC56CCCOC6)ncc4cc3Cl)CC2)COCC1O (single isomer, unassigned) [Ex-1.13, (1R,3S, or 1R,3R, or 1S,3S, or 1S,3R)-N-(7-chloro-6-(4-((3R,4R or 3S,4S)-4-hydroxy-3-methyltetrahydrofuran-3-yl)piperazin-1-yl)isoquinolin-3-yl)-5-oxaspiro[2.5]octane-1-carboxamide] | 275
26 | CCOC1CC2(C1)CC2C(=O)Nc1cc2cc(N3CCN(C4(C)COCC4F)CC3)c(Cl)cc2cn1 (single isomer, unassigned) [Ex-10.24, (1R,2R or 1S,2S)-N-[7-chloro-6-[4-((3R,4R or 3S,4S)-4-fluoro-3-methyl-tetrahydrofuran-3-yl)piperazin-1-yl]-3-isoquinolyl]-5-ethoxy-spiro[2.3]hexane-2-carboxamide] | 0.0813
27 | Cc1cc2cnc(NC(=O)C3C(C)C3c3cnn(C)c3)cc2cc1N1CCN(C2(C)CCOC2)CC1 (single isomer, unassigned) [Ex-9.15] | 0.316
28 | COC1COCC1N1CCN(c2cc3cc(NC(=O)C4CC45CCOCC5)ncc3cc2Cl)CC1 (single isomer, unassigned) [Ex-5.9] | 1510
29 | C[C@H]1CN(C2(C)COCC2O)CCN1c1cc2cc(NC(=O)C3CC34CCOCC4)ncc2cc1Cl (single isomer, unassigned) [Ex-14.2, N-(7-chloro-6-((2R or 2S)-4-(4-(3R,4R or 3S,4S)-hydroxy-3-methyltetrahydrofuran-3-yl)-2-methylpiperazin-1-yl)isoquinolin-3-yl)-6-oxaspiro[2.5]octane-1-carboxamide] | 0.0813
